{"source": "patent EP0400480A1", "about": "“A method for enhancing the cytotoxicity of anthracyclines through photoactivation” (CONSIGLIO NAZIONALE DELLE RICERCHE, priority 1989, dated 1990)", "key": {"FRT L5 cells [1]": {"test_system": "FRT L5 cells", "assay": "Growth curve (count of vital cells) of FRT L5 cells after 2 hr incubation with or without 595 nm irradiation (Example 1)", "type": "cell-based, Fisher Rat", "details": "50 ng/ml, irradiation 595 nm 245 J/cm², curve (f) compared with non-irradiated curve (b)", "procedure": "A culture of Fisher Rat Thyroid cells classified as FRT L5 was performed routinely in Petri dishes in a Ham F-12 medium modified by Coon (K.C. Biological Co.) with addition of 5% calf serum (Grand Island Biological Co.) by incubation at 37°C in an atmosphere with 5% CO₂.\nFor determining the growth curve a suitable number of the colture Petri dishes was trypsinized and the cells were re-suspended in growth medium in such a way as to have a cell concentration of appoximately 10⁶/ml. Suspension volumes containing a number of cells of the order of 10⁵ were poured into dishes of 60 mm diameter and covered with 3 ml culture medium, maintaining the cell suspension under stirring in order to have a uniform cell distribution in the various dishes.\nThe dishes were put in an incubator for 24 hrs and then incubated for 2 hrs with fresh reaction medium containing […] (5-ID).\n5-iminodaunomicin was prepared in a 1.78.10⁻⁵M solution in dejonized bidistilled water and was added to the various dishes in such amounts as to have concentrations of 0,50, 200, 400 and 1000 ng/ml. Incubation of these dishes was performed in the dark while at the same time a dish prepared in the same way and having a 5-iminodaunomicin concentration of 50 ng/ml was incubated under red light radiation of 595 nm wave length. […]"}, "FRT L5 cells [2]": {"test_system": "FRT L5 cells", "assay": "Cell survival of FRT L5 cells relative to non-irradiated culture after incubation with 595 nm irradiation (Examples 2 and 3)", "type": "cell-based, Fisher Rat", "details": "1000 ng/ml", "procedure": "Following the method of Example 1, FRT L5 cells were resuspended, distributed in dishes and incubated for 72 hrs. At this point 5-ID was introduced in the dishes in an amount such as to have a concentration in the medium of 1000 ng/ml and the dishes were incubated for 2 hrs. During this period the various dishes were irradiated with red light of 595 nm with constant radiation density on the dish of an average of 34 mW/cm² for times of from 15 to 120 minutes.\nEach irradiation period was selected so that its termination coincided with the incubation end.\nThe average dose of light administered on the dish in 120 minutes was 245 J/cm².\n2, in which the percentage of cell survival refferred to a non-irradiated culture is represented as a function of the light dose in J/cm².\nExample 2 was repeated, except that each dish was irradiated for only 15 minute during the 2 hr incubation with 5-ID.\nSaid 15 minute irradiations were started with increasing delays with respect to the start of the incubation, and precisely with delays of 0,15, 30, 45, 60, 75, 90 and 105 minutes.\nThe results are reported in figure 3, in which the percentage cell survival, with respect to non- irradiated cultures, is reported as a function of the delay from the irradiation start with respect to the start of the incubation with 5-ID."}}}
{"smiles": "COc1cccc2c1C(=N)c1c(O)c3c(c(O)c1C2=O)C[C@@](O)(C(C)=O)C[C@@H]3O[C@H]1C[C@H](N)[C@H](O)[C@H](C)O1", "note": "[5-ID, 5-iminodaunomicin]", "values": [{"measurement": "lowering the number of vital cell", "setting": "FRT L5 cells [1]", "result": "one order of magnitude"}, {"measurement": "lethal effect (cell survival referred to a non-irradiated culture)", "setting": "FRT L5 cells [2]; 2 hr incubation, irradiation 595 nm, 34 mW/cm², short time (ca. 30 minutes)", "result": "high lethal effect"}, {"measurement": "effect of incubation without irradiation", "setting": "FRT L5 cells [2]; without irradiation, short time, see curve (e) of figure 1", "result": "does not have a measurable effect"}]}
